Reference: patent publication US5859042A, “Five membered heterocyclic compounds” (Ono Pharmaceutical Co., Ltd., priority 1997, dated 1999)

Target: T1, 5α-reductase (Homo sapiens, UniProt P31213)
T1 construct: Frozen human prostates were thawed on ice and minced with scissors into small pieces; from tissue; host or cells: human prostate (frozen), washed 140,000×g membrane pellet
T1 sequence (P31213 1-254): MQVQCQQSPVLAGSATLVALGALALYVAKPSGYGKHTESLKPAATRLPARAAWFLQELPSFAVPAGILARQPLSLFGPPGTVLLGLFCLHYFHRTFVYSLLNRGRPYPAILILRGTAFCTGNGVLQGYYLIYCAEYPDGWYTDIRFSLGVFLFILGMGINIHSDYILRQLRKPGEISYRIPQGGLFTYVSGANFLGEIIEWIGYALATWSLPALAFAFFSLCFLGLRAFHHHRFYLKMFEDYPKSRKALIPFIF
Assay: inhibitory activity on 5α-reductase from human prostates (conversion of 14C-testosterone to DHT)
Format: biochemical
Conditions: human prostatic 5α-reductase, pH 5.0, 1 μM 14C-testosterone, 1 mM NADPH, 30 min at 37° C.
Procedure: (1) Preparation of 5α-reductase from human prostates
Frozen human prostates were thawed on ice and minced with scissors into small pieces (~1 mm^3). The minced tissue was homogenized in 3 tissue volumes of ice cold medium A (20 mM potassium phosphate, pH 6.5, containing 0.32M sucrose, 1 mM dithiothreitol, 50 μM NADPH, 1 mM EDTA), first with a Brinkmann Polytron and then with a Dounce homogenizer. The homogenate was filtered through gauze and the filtrate was centrifuged at 140,000×g at 4° C. for 60 min. The resulting pellet was washed with 3 tissue volumes of medium A. The washed pellet was suspended (5-10 mg protein/ml) in 20 mM potassium phosphate, pH 6.5, containing 20% glycerol, 50 μM NADPH and 1 mM dithiothreitol. An appropriate aliquot of this suspension was used as the source of 5α-reductase.
5α-reductase activity was determined by following the conversion of testosterone to 5α-dihydrotestosterone (DHT). In brief, buffer (100 mM Tris-citrate, pH5.0), 1 mM NADPH and human prostatic 5α-reductase(0.4-1 mg protein) were placed in test tubes. After addition of test compounds (dissolved in 5 μl in DMSO or EtOH) or solvents to the tubes, the solutions were preincubated at room temperature for 10 min. The reactions were initiated by addition of 1 μM ^14 C-testosterone to a final volume of 0.5 ml. Following 30 min incubation at 37° C., the reactions were stopped by addition of 5 ml dichloromethane. After centrifugation at 1000 rpm for 5 min, the organic phase (bottom) was collected and the volume reduced to ~100 μl in a 42° C. water bath. The solutions were applied to silica plates and the plates were developed in chloroform/ethyl acetate (3:1) at room temperature. The radioactivity profiles were determined by a BIOSCAN imaging scanner. The silica in sections identified by BIOSCAN and counted in a scintillation counter. Enzyme activity was calculated from the percent of recovered radio label converted to the product DHT.

Row | SMILES | IC50 (Table 1) [nM] | IC50 (Table 2) [nM]
1 | Cn1c(CC(=O)O)ccc1C(=O)c1ccc(-c2ccc(Br)s2)cc1 [Example 3(55)] | 24 | 
2 | Cn1c(CC(=O)O)ccc1C(=O)c1ccc(C(C)(C)C)cc1 [t-butyl] |  | 400
3 | Cc1ccc(C(=O)c2ccc(CC(=O)O)n2C)cc1 [methyl] |  | 8000
4 | Cn1c(CC(=O)O)ccc1C(=O)c1ccc(C2CCCCC2)cc1 [Example 3(1)] | 20 | 
5 | O=C(O)Cc1ccc(C(=O)c2ccc(-c3ccccc3)cc2)s1 [Example 3(18)] | 450 | 
6 | Cn1c(CC(=O)O)ccc1C(=O)CCCCc1ccccc1 [Example 3(22)] | 840 | 
7 | Cn1c(CC(=O)O)ccc1C(=O)C1CCC(c2ccccc2)CC1 (stereo not drawn) [Example 3(77)] | 250 | 
8 | Cn1c(CC(=O)O)ccc1C(=O)c1ccc(-c2cc(Cl)cc(Cl)c2)cc1 [Example 3(82)] | 630 | 
9 | CCCCCCOc1ccc(C(=O)c2ccc(CC(=O)O)n2C)cc1 [hexyloxy] |  | 170
10 | CC(C)Cc1ccc(C(=O)c2ccc(CC(=O)O)n2C)cc1 [isobutyl] |  | 74

Results, then the compound that gave them:

Row | IC50 (Table 1) [nM] | IC50 (Table 2) [nM] | SMILES
11 | 160 |  | Cn1c(CC(=O)O)ccc1C(=O)c1ccc(-n2cccc2)cc1 [Example 3(50)]
12 | 130 |  | Cn1c(CC(=O)O)ccc1C(=O)c1ccc2c(c1)C(=O)c1ccccc1-2 [Example 3(20)]
13 | 23 |  | Cn1c(CC(=O)O)ccc1C(=O)c1ccc(-c2cccs2)cc1 [Example 3(54)]
14 | 170 |  | Cn1c(C(=O)O)ccc1C(=O)c1ccc(-c2ccccc2)cc1 [Example 3(70)]
15 | 24 |  | Cn1c(CC(=O)O)ccc1C(=O)c1ccc(OCc2ccccc2)cc1 [Example 3(8)]
16 | 24 |  | CCc1ccc(-c2ccc(C(=O)c3ccc(CC(=O)O)n3C)cc2)cc1 [Example 2]
17 | 170 |  | Cc1cc(OCc2ccccc2)ccc1C(=O)c1ccc(CC(=O)O)n1C [Example 3(16)]
18 | 98 |  | Cn1c(CC(=O)O)ccc1C(=O)c1ccc(CSc2ccccc2)cc1 [Example 3(41)]
19 | 92 |  | Cc1cc(C(=O)c2ccc(CC(=O)O)n2C)ccc1-c1ccccc1 [Example 3(83)]
20 |  | 440 | Cn1c(CC(=O)O)ccc1C(=O)c1ccc(I)cc1 [iodo]
21 | 19 |  | Cn1c(CC(=O)O)ccc1C(=O)c1ccc(-c2ccccc2)cc1 [Example 3(2)]
22 | 210 |  | Cn1c(CC(=O)O)ccc1C(=O)c1ccc(C(=O)c2ccccc2)cc1 [Example 3(5)]
23 | 56 |  | Cn1c(CC(=O)O)ccc1C(=O)c1ccc(/C=C/c2ccccc2)cc1 [Example 3(47)]
24 | 41 |  | Cn1c(CC(=O)O)ccc1C(=O)c1ccc(-c2ccc(F)cc2)cc1 [Example 3(62)]
